Results reported in US10627415B2, “Compositions and methods for diagnosing, monitoring, and treating an autoimmune disease” (BOARD OF TRUSTEES OF MICHIGAN STATE UNIVERSITY, priority 2015, dated 2020).
“And” between values parts separate entries of the source, which are not always exact repeats. Equal values may be shown once.

What was measured:
RBCs [1] = experiment: C-peptide binding to RBCs (Example 1, supernatant subtraction); format: cell-based; conditions: RBCs of individual healthy controls; 20 picomoles human C-peptide, 75 micromolar albumin, 2 hours
Description: The amount of C-peptide binding to RBCs obtained from MS patients was compared to controls run on the same day. All samples were handled in an identical manner. Briefly, about 10 mL of blood were drawn from each donor; the RBCs were purified by centrifugation. Next, 20 picomoles of human C-peptide were added to a buffer containing 75 micromolar albumin. RBCs were added to this C-peptide and albumin-containing buffer and allowed to incubate for 2 hours. Next, the samples were centrifuged and the moles of C-peptide remaining in the supernatant are subtracted from the original amount added. This provided a value corresponding to the moles of C-peptide bound to the RBCs. […] Importantly, of the 25 MS patient samples analyzed, the values ranged from 2.7 to 4.8 picomoles of C-peptide bound to the RBCs, with 18 of the 25 above 3.2 picomoles. In comparison, one control was 3.1, another was 2.8; all others were below 2.45. Thus, separation exists between groups—approximately […] of bound C-peptide difference.

RBCs [2] = experiment: C-peptide binding to RBCs, ELISA of supernatant (Example 2 protocol; hematocrit and storage variations); format: cell-based, human; conditions: for average C-peptide bound to the RBCs: 7% hematocrit, 20 nM C-peptide, 75 μM BSA (0.5%), 2 hours at 37° C.
Description: All samples were handled in an identical manner. Briefly, about 10 mL of blood was drawn from each donor; the RBCs were purified by centrifugation; and the RBCs were suspended in physiological salt solution (PSS). Then RBCs were combined with PSS (containing bovine serum albumin (BSA) as a C-peptide binding facilitator) and C-peptide to generate a mixture having a 7% hematocrit, 20 nM C-peptide, and 75 μM BSA (0.5%). The mixture was allowed to incubate for 2 hours at 37° C. Next, the samples were centrifuged to separate the cells from solution, the solution was diluted 1:50 with double distilled water, and the amount of C-peptide remaining in the solution was determined by ELISA. This provided a value corresponding to the moles of C-peptide bound to the RBCs. […] Whereas blood from the healthy controls bound an average of 1.99±0.32 pmoles C-peptide, blood from MS patients and OND patients bound averages of 3.51±0.59 pmoles of C-peptide and 2.23±0.51 pmoles of C-peptide, respectively. As shown by p values of less than 0.001, the increase in C-peptide binding relative to healthy controls and OND patients is significant.
Experiments were performed to determine the effect of hematocrit on C-peptide binding to RBCs. The experiment was conducted as described above in Experiment 2, except various hematocrits were tested. […] In general, increase the hematocrit results in a substantially linear increase in C-peptide binding when the RBCs are saturated with C-peptide.
Experiments were performed to determine the stability of the whole blood. The experiment was conducted as described above in Experiment 2, except the blood was stored in citrate tubes at 4° C. over a period of 4 days during the experiment. Only blood from healthy patients was tested.
(§1) Experiments were performed to determine the stability of supernatant generated after separating cells from solution as described in Experiment 2. The protocol of Experiment 2 was repeated on blood from healthy patients, but the supernatant was stored at 4° C. for from 1 to 3 days prior to determining C-peptide binding by the RBCs.
as §1, with “−20°” for “4°”, “C.” for “C. for”, “0 (day of draw)” for “1”, “6 weeks” for “3 days”

[3] = tested on: bovine pulmonary artery endothelial cells; experiment: C-peptide binding to endothelial cells; format: cell-based; conditions: 1 hour at 37° C., 10 nM Zn2+ and C-peptide in DMEM containing serum
Description: Additional experiments were performed to determine whether a C-peptide facilitator can facilitate binding of C-peptide to cells expressing Glut1 other than RBCs. Endothelial cells (bovine pulmonary artery endothelial cells) were grown to confluency on 12-well tissue culture plates. When the cell reached confluency, they were incubated in Dulbecco's Modified Eagle Medium (DMEM) containing serum for 24 hours. Following incubation, the cells were washed and incubated for 1 hour at 37° C. in the presence of 10 nM Zn^2+ and C-peptide in DMEM containing serum. The endothelial cells were determined to have bound 2.0±0.1 attomoles of C-peptide per endothelial cell.

[4] = tested on: Neutrophils from healthy control patients; experiment: C-peptide binding to neutrophils; format: cell-based, human; conditions: 20 nM C-peptide, 1 hour at 37° C.
Description: Neutrophils from healthy control patients were also tested. The neutrophils were isolated using techniques known in the art. Briefly, blood was drawn into a heparin-coated vacutainer. An equal volume of 3% Dextran was added to drawn whole blood in sterile 50 mL tubes. After inverting, the tubes were set upright for 30 minutes at room temperature to generate a plurality of layers. The top layer was aspirated and transferred to a new 50 mL tube and centrifuged at 500 g for 10 minutes at 4° C. The resulting top layer was discarded. The resulting pellet was resuspended in 10 mL 0.9% saline. After pooling suspensions together in a single tube, it was underplayed with 10 mL of hypaqu-ficoll and centrifuged at 800 g for 15 minutes at room temperature. The resulting liquid band was removed and the remainder was resuspended in 20 mL 0.2% saline and mixed. 20 mL of 1.6% saline was then added to the suspension and it was centrifuged at 250 g for 6 minutes at 4° C. The supernatant was removed and the pellet was suspended in PBS for use in experiments. The cells were counted and then incubated with 20 nM C-peptide for 1 hour at 37° C. to generate an incubated sample. The incubated sample was centrifuged and the amount of C-peptide in the supernatant was determined by ELISA. The neutrophils were determined to have bound 2.68 attomoles of C-peptide per neutrophil.

Q: How did the “C-peptide bound to the RBCs” value (RBCs [1]) turn out when “C-peptide (EAEDLQVGQVELGGGPGAGSLQPLALEGSLQ; listed as Homo sapiens) [approximately 30 amino acid polypeptide that connects the A and B chain of mature insulin within the proinsulin molecule]” was run?
A: 3.1 and 2.8 and below 2.45

Q: And the “average C-peptide bound to the RBCs” value (RBCs [2]; MS patients)?
A: 3.51 ± 0.59 pmol

Q: And the “average C-peptide bound to the RBCs” value (RBCs [2]; OND patients)?
A: 2.23 ± 0.51 pmol

Q: What about the C-peptide binding (RBCs [2]; healthy blood stored in citrate tubes at 4° C., day 1) of the same substance?
A: 2.38 pmol

Q: What about the C-peptide binding (RBCs [2]; healthy blood stored in citrate tubes at 4° C., day 2) of the same substance?
A: 2.23 pmol

Q: And the C-peptide binding (RBCs [2]; healthy blood stored in citrate tubes at 4° C., day 3)?
A: 2.14 pmol

Q: What about the C-peptide binding (RBCs [2]; healthy blood stored in citrate tubes at 4° C., day 4) of the same substance?
A: 1.83 pmol

Q: And the C-peptide binding (RBCs [2]; healthy blood, supernatant stored at 4° C., day 1)?
A: 2.23 pmol

Q: And the C-peptide binding (RBCs [2]; healthy blood, supernatant stored at 4° C., day 2)?
A: 2.17 pmol

Q: And the C-peptide binding (RBCs [2]; healthy blood, supernatant stored at 4° C., day 3)?
A: 2.20 pmol

Q: What about the C-peptide binding (RBCs [2]; healthy blood, supernatant stored at −20° C., week 0 (day of draw)) of the same substance?
A: 2.45 pmol

Q: And the C-peptide binding (RBCs [2]; healthy blood, supernatant stored at −20° C., week 1)?
A: 2.48 pmol

Q: What about the C-peptide binding (RBCs [2]; healthy blood, supernatant stored at −20° C., week 3) of the same substance?
A: 2.30 pmol

Q: What about the C-peptide binding (RBCs [2]; healthy blood, supernatant stored at −20° C., week 6) of the same substance?
A: 2.34 pmol

Q: What about the “average C-peptide bound to the RBCs” value (RBCs [2]; healthy controls) of the same substance?
A: 1.99 ± 0.32 pmol

Q: What about the C-peptide binding (RBCs [2]; healthy individuals that do not have MS) of the same substance?
A: about 1500 C-peptide molecules per cell

Q: What about the “C-peptide binding by RBCs, Control” value (RBCs [2]; hematocrit 3.50%) of the same substance?
A: 1.18 pmol

Q: And the “C-peptide binding by RBCs, MS” value (RBCs [2]; hematocrit 3.50%)?
A: 1.63 pmol

Q: What about the “C-peptide binding by RBCs, Control” value (RBCs [2]; hematocrit 7%) of the same substance?
A: 2.18 pmol

Q: What about the “C-peptide binding by RBCs, MS” value (RBCs [2]; hematocrit 7%) of the same substance?
A: 3.38 pmol

Q: What about the “C-peptide binding by RBCs, Control” value (RBCs [2]; hematocrit 14%) of the same substance?
A: 4.78 pmol

Q: What about the “C-peptide binding by RBCs, MS” value (RBCs [2]; hematocrit 14%) of the same substance?
A: 6.25 pmol

Q: And the C-peptide bound [3]?
A: 2.0±0.1 attomoles of C-peptide per endothelial cell

Q: And the C-peptide bound [4]?
A: 2.68 attomoles of C-peptide per neutrophil
